# From ChEMBL document CHEMBL1122559, “Inhibition of human dihydrofolate reductase by 4,6-diamino-1,2-dihydro-2,2-dimethyl-1-(substituted-phenyl)-s-triazine s. A quantitative structure-activity relationship analysis” (J Med Chem, 1984)
# Molecular target: T1, Dihydrofolate reductase (Homo sapiens) (UniProt P00374)
# T1 sequence (whole entry): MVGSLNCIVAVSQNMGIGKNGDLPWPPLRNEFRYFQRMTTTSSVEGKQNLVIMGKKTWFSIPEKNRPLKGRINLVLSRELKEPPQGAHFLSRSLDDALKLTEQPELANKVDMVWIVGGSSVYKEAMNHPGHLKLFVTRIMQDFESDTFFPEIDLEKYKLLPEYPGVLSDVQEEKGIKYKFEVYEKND
# Description: Inhibitory activity against human lymphoblastoid cell (WIL2) dihydrofolate reductase (DHFR)
row,SMILES,Log 1/Ki app
1,CC1(C)N=C(N)N=C(N)N1c1ccc(Br)cc1,5.76
2,CC(C)(C)c1ccc(N2C(N)=NC(N)=NC2(C)C)cc1,5.66
3,CC1(C)N=C(N)N=C(N)N1c1ccc(O)cc1,4.57
4,CC1(C)N=C(N)N=C(N)N1c1ccc(CSc2ccccc2)cc1,7.33
5,CCCCc1ccc(N2C(N)=NC(N)=NC2(C)C)cc1,6.27
6,COC(=O)c1ccc(N2C(N)=NC(N)=NC2(C)C)cc1,3.85
7,CC1(C)N=C(N)N=C(N)N1c1ccc(F)cc1,6.15
8,CC1(C)N=C(N)N=C(N)N1c1ccc(OCC(=O)N2CCOCC2)cc1,5.66
9,CCCCCCCCCc1ccc(N2C(N)=NC(N)=NC2(C)C)cc1,6.52
10,CC1(C)N=C(N)N=C(N)N1c1ccc(SCc2ccccc2)cc1,7.01
11,CCOC(=O)c1ccc(N2C(N)=NC(N)=NC2(C)C)cc1,3.46
12,CC1(C)N=C(N)N=C(N)N1c1ccc(C#N)cc1,3.69
13,CCCCCCOc1ccc(N2C(N)=NC(N)=NC2(C)C)cc1,5.53
14,Cc1ccccc1SCc1ccc(N2C(N)=NC(N)=NC2(C)C)cc1,7.18
15,CC1(C)N=C(N)N=C(N)N1c1ccc(C(F)(F)F)cc1,5.58
16,CCCOc1ccc(N2C(N)=NC(N)=NC2(C)C)cc1,5.57
17,CCCCCCCCCCCOc1ccc(N2C(N)=NC(N)=NC2(C)C)cc1,5.68
18,CC1(C)N=C(N)N=C(N)N1c1ccc(OCc2ccc(S(N)(=O)=O)cc2)cc1,7.21

row,SMILES,Log 1/Ki app
1,CC1(C)N=C(N)N=C(N)N1c1ccc(OCc2ccc(Cl)c(Cl)c2)cc1,6.46
2,CC1(C)N=C(N)N=C(N)N1c1ccc(S(C)(=O)=O)cc1,4.08
3,CC1(C)N=C(N)N=C(N)N1c1ccc(OCc2ccccc2)cc1,6.93
4,CC1(C)N=C(N)N=C(N)N1c1ccc(OCc2ccc(C(N)=O)cc2)cc1,7.23
5,CC1(C)N=C(N)N=C(N)N1c1ccc(SCc2ccc(Cl)cc2)cc1,6.97
6,CC1(C)N=C(N)N=C(N)N1c1ccc(C#Cc2ccccc2)cc1,5.42
7,CC1(C)N=C(N)N=C(N)N1c1ccc(OCc2ccc(CO)cc2)cc1,7.12
8,Cc1ccc(N2C(N)=NC(N)=NC2(C)C)cc1,5.97
9,COc1ccc(N2C(N)=NC(N)=NC2(C)C)cc1,5.31
10,CCCCCCCCCCCCOc1ccc(N2C(N)=NC(N)=NC2(C)C)cc1,5.85
11,Cc1cccc(SCc2ccc(N3C(N)=NC(N)=NC3(C)C)cc2)c1,7.22
12,CC(=O)c1ccc(N2C(N)=NC(N)=NC2(C)C)cc1,4.5
13,CC(=O)Nc1ccc(N2C(N)=NC(N)=NC2(C)C)cc1,4.23
14,CC1(C)N=C(N)N=C(N)N1c1ccc(S(N)(=O)=O)cc1,3.81
15,CC1(C)N=C(N)N=C(N)N1c1ccc(OCCOc2ccc(N)cc2)cc1,6
16,CC1(C)N=C(N)N=C(N)N1c1ccc(N)cc1,4.65
17,CC1(C)N=C(N)N=C(N)N1c1ccc(I)cc1,5.51
